Measurements: patent publication US10246425B2, “3,5-diamino-6-chloro-N-(N-(4-phenylbutyl)carbamimidoyl) pyrazine-2-carboxamide compounds” (Parion Sciences, Inc., priority 2012, dated 2019)
Counter-ions that a name gives are not always drawn.

Experiments:
Primary CBE cells = test: Airway hydration and sodium channel block (in vitro model): surface liquid retention; assay type: cell-based, canine; details: 50 μl buffer, 10 μM, 8 hours
Experimental: Assay 4. Airway Hydration and Sodium Channel Block (In Vitro Model)
Primary CBE cells are plated onto collagen-coated, porous membranes maintained at an air-liquid interface to assess maintenance of surface liquid volume over time. At the start of the experiment, each 12 mm snapwell insert was removed from the plate containing air-liquid interface culture media, blotted dry, weighed, and 50 μL of vehicle (0.1% DMSO), or ENaC blocker (10 μM in 0.1% DMSO) applied to the apical surface and the mass was recorded. The inserts were immediately returned to a transwell plate (500 μL, Krebs Ringer Bicarbonate (KRB), pH 7.4 in lower chamber) and placed in a 37° C., 5% CO2 incubator. To reduce artifact due to an apical carbohydrate osmotic gradient upon water loss, glucose was not included in the apical buffer. Compound (1a) was tested and compared to vehicle, and the mass of ASL was monitored serially from 0-8 or 24 h. The mass of surface liquid was converted to volume in μL. Data are reported as % initial volume (100%=50 μL).
The duration of sodium transport inhibition was determined indirectly by measuring the buffer retained after a 50 μl volume of experimental buffer was added to the apical surface of CBE cells.

[1] = system: human bronchial epithelial (HBE) cells; test: Airway surface liquid drug (ASL) clearance and metabolism by human airway epithelium; assay type: in vitro ADME; details: Table 4: HBE cells, 25 μL of 25 μM apical, 2 h, mean ± SD; for % of Initial Drug Mass on Apical Side (Parent and metabolite, 2 h): 37° C.
Experimental: Assay 3. Airway Surface Liquid Drug (ASL) Clearance and Metabolism by Human Airway Epithelium
(§1) The disappearance of Compound II-d from the apical surface and airway epithelial metabolism were assessed in human bronchial epithelial (HBE) cells (Table 3). In these experiments 25 μL of a 25 μM solution of ENaC blocker was added to the apical surface of HBE cells grown at an air/liquid interface, and the drug concentration in the apical and basolateral compartment was measured over 2 h by UPLC.
as §1, with “Therefore, the compounds of Formula (A) have a longer half-life on mucosal surfaces compared to these know compounds as evidenced by the data shown in Table 4. The” for “The”, “HBE and compared to Comparative Example 1” for “human bronchial epithelial (HBE) cells”, “4).” for “3).”

Structure (SMILES)	surface liquid retained on apical surface (% initial volume) (Primary CBE cells) [%]	% of Apical Mass as Metabolites (2 h) [1]	% of Initial Apical Mass on Basolateral Side (2 h) [1] [%]	% on Basolateral Side as Metabolites (2 h) [1]	% of Initial Drug Mass on Apical Side (Parent and metabolite, 2 h) [1] [%]
N=C(N)NC(=O)c1nc(Cl)c(N)nc1N [Amiloride, amiloride, reference compound]	25±19.2	–	–	–	–
CCCCCCN(CCCN[C@@H](CCc1ccc(CCCCNC(=N)NC(=O)c2nc(Cl)c(N)nc2N)cc1)C(N)=O)C[C@H](O)[C@@H](O)[C@H](O)[C@H](O)CO [III-d, 3,5-diamino-N—(N-(4-(4-((S)-4-amino-3-(3-(hexyl((2S,3R,4R,5R)-2,3,4,5,6-pentahydroxyhexyl)amino)propylamino)-4-oxobutyl)phenyl)butyl)carbamimidoyl)-6-chloropyrazine-2-carboxamide]	–	none	3.5 ± 2.2	None	–
CCCCCCN(CCCN[C@@H](Cc1ccc2cc(CCCCNC(=N)NC(=O)c3nc(Cl)c(N)nc3N)ccc2c1)C(N)=O)C[C@H](O)[C@@H](O)[C@H](O)[C@H](O)CO [IX-m, 3,5-diamino-N—(N-(4-(6-((S)-3-amino-2-(3-(hexyl((2S,3R,4R,5R)-2,3,4,5,6-pentahydroxyhexyl)amino)propylamino)-3-oxopropyl)naphthalen-2-yl)butyl)carbamimidoyl)-6-chloropyrazine-2-carboxamide]	–	None	1.1 ± 0.2	None	–
Cl.N=C(NCCCCc1ccc(CC[C@H](NCCCN(C[C@H](O)[C@@H](O)[C@H](O)[C@H](O)CO)C[C@H](O)[C@@H](O)[C@H](O)[C@H](O)CO)C(N)=O)c2ccccc12)NC(=O)c1nc(Cl)c(N)nc1N [V-d, 3,5-diamino-N—(N-(4-(4-((S)-4-amino-3-(3-(bis((2S,3R,4R,5R)-2,3,4,5,6-pentahydroxyhexyl)amino)propylamino)-4-oxobutyl)naphthalen-1-yl)butyl)carbamimidoyl)-6-chloropyrazine-2-carboxamide hydrochloride]	–	none	9.3 ± 0.86	None	–
CCCCCCN(CCCN[C@@H](CCc1ccc(CCCCNC(=N)NC(=O)c2nc(Cl)c(N)nc2N)c2ccccc12)C(N)=O)C[C@H](O)[C@@H](O)[C@H](O)[C@H](O)CO [VI-d, 3,5-diamino-N—(N-(4-(4-((S)-4-amino-3-(3-(hexyl((2S,3R,4R,5R)-2,3,4,5,6-pentahydroxyhexyl)amino)propylamino)-4-oxobutyl)naphthalen-1-yl)butyl)carbamimidoyl)-6-chloropyrazine-2-carboxamide hydrochloride]	–	None	1.2 ± 0.5	None	–
N=C(NCCCCc1ccc(C[C@H](NCCCN(C[C@H](O)[C@@H](O)[C@H](O)[C@H](O)CO)C[C@H](O)[C@@H](O)[C@H](O)[C@H](O)CO)C(N)=O)c2ccccc12)NC(=O)c1nc(Cl)c(N)nc1N [VII-ee, 3,5-diamino-N—(N-(4-(4-((S)-3-amino-2-(3-(bis((2S,3R,4R,5R)-2,3,4,5,6-pentahydroxyhexyl)amino)propylamino)-3-oxopropyl)naphthalen-1-yl)butyl)carbamimidoyl)-6-chloropyrazine-2-carboxamide]	–	None	6.4 ± 2.1	None	–
CCCCCCN(CCCN[C@@H](Cc1ccc(CCCCNC(=N)NC(=O)c2nc(Cl)c(N)nc2N)c2ccccc12)C(N)=O)C[C@H](O)[C@@H](O)[C@H](O)[C@H](O)CO [VIII-d, 3,5-diamino-N—(N-(4-(4-((S)-3-amino-2-(3-(hexyl((2S,3R,4R,5R)-2,3,4,5,6-pentahydroxyhexyl)amino)propylamino)-3-oxopropyl)naphthalen-1-yl)butyl)carbamimidoyl)-6-chloropyrazine-2-carboxamide]	–	None	2.0 ± 0.8	None	–
N=C(NCCCCc1ccc2cc(C[C@H](NCCCN(C[C@H](O)[C@@H](O)[C@H](O)[C@H](O)CO)C[C@H](O)[C@@H](O)[C@H](O)[C@H](O)CO)C(N)=O)ccc2c1)NC(=O)c1nc(Cl)c(N)nc1N [X-d, 3,5-diamino-N—(N-(4-(6-((S)-3-amino-2-(3-(bis((2S,3R,4R,5R)-2,3,4,5,6-pentahydroxyhexyl)amino)propylamino)-3-oxopropyl)naphthalen-2-yl)butyl)carbamimidoyl)-6-chloropyrazine-2-carboxamide]	–	None	5.0 ± 3.3	None	–
N=C(NCCCCc1ccc(C[C@H](NCCCN(C[C@H](O)[C@@H](O)[C@H](O)[C@H](O)CO)C[C@H](O)[C@@H](O)[C@H](O)[C@H](O)CO)C(N)=O)c2c1CCCC2)NC(=O)c1nc(Cl)c(N)nc1N [XI-cc, 3,5-diamino-N—(N-(4-(4-((S)-3-amino-2-(3-(bis((2S,3R,4R,5R)-2,3,4,5,6-pentahydroxyhexyl)amino)propylamino)-3-oxopropyl)-5,6,7,8-tetrahydronaphthalen-1-yl)butyl)carbamimidoyl)-6-chloropyrazine-2-carboxamide]	–	None	1.8 ± 0.3	None	–
CCCCCCN(CCCN[C@@H](Cc1ccc(CCCCNC(=N)NC(=O)c2nc(Cl)c(N)nc2N)c2c1CCCC2)C(N)=O)C[C@H](O)[C@@H](O)[C@H](O)[C@H](O)CO [XII-d, 3,5-diamino-N—(N-(4-(4-((S)-3-amino-2-(3-(hexyl((2S,3R,4R,5R)-2,3,4,5,6-pentahydroxyhexyl)amino)propylamino)-3-oxopropyl)-5,6,7,8-tetrahydronaphthalen-1-yl)butyl)carbamimidoyl)-6-chloropyrazine-2-carboxamide]	–	None	9.6 ± 6.3	None	–
N=C(NCCCCc1ccc2cc(CC[C@H](NCCCN(C[C@H](O)[C@@H](O)[C@H](O)[C@H](O)CO)C[C@H](O)[C@@H](O)[C@H](O)[C@H](O)CO)C(N)=O)ccc2c1)NC(=O)c1nc(Cl)c(N)nc1N [XIII-bb, 3,5-diamino-N—(N-(4-(6-((S)-4-amino-3-(3-(bis((2S,3R,4R,5R)-2,3,4,5,6-pentahydroxyhexyl)amino)propylamino)-4-oxobutyl)naphthalen-2-yl)butyl)carbamimidoyl)-6-chloropyrazine-2-carboxamide]	–	None	4.2 ± 1.9	None	–
CCCCCCN(CCCN[C@@H](CCc1ccc2cc(CCCCNC(=N)NC(=O)c3nc(Cl)c(N)nc3N)ccc2c1)C(N)=O)C[C@H](O)[C@@H](O)[C@H](O)[C@H](O)CO [XIV-d, 3,5-diamino-N—(N-(4-(6-((S)-4-amino-3-(3-(hexyl((2S,3R,4R,5R)-2,3,4,5,6-pentahydroxyhexyl)amino)propylamino)-4-oxobutyl)naphthalen-2-yl)butyl)carbamimidoyl)-6-chloropyrazine-2-carboxamide]	–	None	0.32 ± 0.6	None	–
N=C(NCCCCc1ccc(CC[C@H](NCCCN(C[C@H](O)[C@@H](O)[C@H](O)[C@H](O)CO)C[C@H](O)[C@@H](O)[C@H](O)[C@H](O)CO)C(N)=O)c2c1CCCC2)NC(=O)c1nc(Cl)c(N)nc1N [XV-dd, 3,5-diamino-N—(N-(4-(4-((S)-4-amino-3-(3-(bis((2S,3R,4R,5R)-2,3,4,5,6-pentahydroxyhexyl)amino)propylamino)-4-oxobutyl)-5,6,7,8-tetrahydronaphthalen-1-yl)butyl)carbamimidoyl)-6-chloropyrazine-2-carboxamide]	–	None	1.81 ± 1.6	None	–
N=C(NCCCCc1ccc(C[C@H](NCCCN(C[C@H](O)[C@@H](O)[C@H](O)[C@H](O)CO)C[C@H](O)[C@@H](O)[C@H](O)[C@H](O)CO)C(N)=O)cc1)NC(=O)c1nc(Cl)c(N)nc1N [XVI-ee]	–	None	14.9 ± 1.4	None	77.7 ± 12.2
CCCCCCN(CCCN[C@@H](Cc1ccc(CCCCNC(=N)NC(=O)c2nc(Cl)c(N)nc2N)cc1)C(N)=O)C[C@H](O)[C@@H](O)[C@H](O)[C@H](O)CO [XVII-d]	–	None	1.9 ± 1.7	None	76.6 ± 14.7
